The record followed here is ChEMBL document CHEMBL4765417, “Targeting Protein Folding: A Novel Approach for the Treatment of Pathogenic Bacteria” (J Med Chem, 2020).

For data set [1], the target named is Outer membrane protein MIP (Legionella pneumophila, UniProt Q70YI1). In words: Inhibition of Legionella pneumophila Mip assessed as reduction in PPIase activity using succinyl-Ala-Leu-Pro-Phe-4-nitroanilide as substrate incubated for 4 mins by absorbance method.
The nature of data set [2]: Inhibition of Chlamydia trachomatis Mip using N-succinyl-Ala-Ala-Pro-Phe-4-nitroanilide as substrate by absorbance method.
Data set [3] concerns Chlamydia trachomatis. In words: Antibacterial activity against Chlamydia trachomatis infected in human HeLa cells at 5 uM administered at 8 to 24 hrs post infection by phalloidin dye based Alexa Fluor immunofluorescence microscopy. Format: functional. Conditions: time 8-24 hrs.
For data set [4], the system named is Chlamydia trachomatis. Briefly: Antibacterial activity against Chlamydia trachomatis infected in human HeLa cells at 5 uM assessed as reduction in progeny infection administered at 8 to 24 hrs post infection by Western blot analysis. Format: functional. Further details: scale not given: the % may be the effect or the level left. Conditions: time 8-24 hrs. For orientation: In western blotting, separated proteins are transferred to a membrane and probed.

Data set [5] relates to Chlamydia trachomatis. In words: Antibacterial activity against Chlamydia trachomatis infected in human HeLa cells at 5 uM assessed as reduction in progeny infection administered immediately followed by bacterial infection by phalloidin dye based Alexa Fluor immunofluorescence microscopy. Type of data set: functional. Also noted: scale not given: the % may be the effect or the level left.

Data set [6] relates to Chlamydia trachomatis. In words: Antibacterial activity against Chlamydia trachomatis infected in human HeLa cells at 5 uM assessed as reduction in progeny infection administered immediately followed by bacterial infection by Western blot analysis. Type of data set: functional. Also noted: scale not given: the % may be the effect or the level left.
Data set [7] can be described thus: Inhibition of Neisseria gonorrhoeae N2009 Mip using N-succinyl-Ala-Ala-Pro-Phe-4-nitroanilide as substrate by absorbance method.
In another data set the test system is HCT-116. Briefly: Antiproliferative activity against human HCT116 cells incubated for 24 hrs by cell count reagent SF based assay. Format: functional. Conditions: HCT-116, 24 h.
Data set [8] deals with Peptidyl-prolyl cis-trans isomerase FKBP1A (Homo sapiens, UniProt P62942). In words: Inhibition of human FKBP12 assessed as reduction in PPIase activity using succinyl-Ala-Leu-Pro-Phe-4-nitroanilide as substrate incubated for 4 mins by absorbance method.
Chain of Peptidyl-prolyl cis-trans isomerase FKBP1A (P62942 whole entry): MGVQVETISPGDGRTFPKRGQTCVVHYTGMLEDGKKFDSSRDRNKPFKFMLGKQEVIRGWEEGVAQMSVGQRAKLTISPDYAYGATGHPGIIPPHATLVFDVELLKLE
The next data set in a line: clinical. Conditions: human, in vivo, po, 30 mg/m2.

Chain of Outer membrane protein MIP (Q70YI1 21-233 limits assumed): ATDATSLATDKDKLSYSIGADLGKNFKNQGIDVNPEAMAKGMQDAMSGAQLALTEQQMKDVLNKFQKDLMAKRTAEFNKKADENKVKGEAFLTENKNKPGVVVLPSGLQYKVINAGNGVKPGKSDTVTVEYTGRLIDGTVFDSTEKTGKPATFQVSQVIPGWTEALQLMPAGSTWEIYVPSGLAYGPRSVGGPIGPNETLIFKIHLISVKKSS

The IC50 is the concentration that inhibits the measured activity by half. For the molecule `C[C@@H]1CC([C@H](O)CC2CC(=O)N(CC(=O)N(C)C(C)(C)C)C(=O)C2)C(=O)[C@@H](C)C1` (stereo partly specified), in data set [1], the IC50 came out at 31700 nM.
With `COc1cc(CCCOC(=O)C2CCCCN2S(=O)(=O)Cc2ccc([N+](=O)[O-])cc2)cc(OC)c1OC` (stereo unspecified), the IC50 came to 64.6 nM in data set [2] and 95.6 nM in data set [7]. The Activity in the data set with Chlamydia trachomatis [3], in the data set with Chlamydia trachomatis [4], in the data set with Chlamydia trachomatis [5] and in the data set on Chlamydia trachomatis [6] was 50% each time.
For orientation: EC50 means the concentration that produces a half-maximal response. `S=C(SC(=S)C1CCCCC1)C1CCCCC1` had a concentration for a half-maximal effect (EC50) in the data set with HCT-116 of 10000 nM.
As to `COc1cc(CCCOC(=O)C2CCCCN2S(=O)(=O)Cc2cccc([N+](=O)[O-])c2)cc(OC)c1OC` (stereo unspecified), the IC50 came to 241 nM in data set [2] and 2790 nM in data set [7].
In the case of `CCC12CC3CC(C1)C(NC(=O)CN1C(=O)CC(C[C@@H](O)C4C[C@@H](C)C[C@H](C)C4=O)CC1=O)C(C3)C2` (stereo partly specified), the IC50 was 190 nM in [8] and 5600 nM in [1].
On to `C[C@@H]1CC([C@H](O)CC2CC(=O)N(CC(=O)NC3C4CC5(C)CC3CC(C)(C4)C5)C(=O)C2)C(=O)[C@@H](C)C1` (stereo partly specified), for which the IC50 turned out to be 180 nM in data set [8] and 1700 nM in [1].
In the same order, the values of `C[C@@H]1CC([C@H](O)CC2CC(=O)N(CC(=O)NC3C4CC5(C)CC(O)(C4)CC3(C)C5)C(=O)C2)C(=O)[C@@H](C)C1` (stereo partly specified) are 220 nM and 4900 nM.
In the same order, the values of `C[C@@H]1CC([C@H](O)CC2CC(=O)N(CC(=O)NC3C4CC5CC3CC(O)(C5)C4)C(=O)C2)C(=O)[C@@H](C)C1` (stereo partly specified) are 1200 nM and 21800 nM.
In the case of `CO[C@H]1C[C@@H]2CC[C@@H](C)[C@@](O)(O2)C(=O)C(=O)N2CCCC[C@H]2C(=O)O[C@H]([C@H](C)C[C@@H]2CC[C@@H](O)[C@H](OC)C2)CC(=O)[C@H](C)/C=C(\C)[C@@H](O)[C@@H](OC)C(=O)[C@H](C)C[C@H](C)/C=C/C=C/C=C/1C` [SIROLIMUS], the half-inhibitory concentration (IC50) in data set [2] was determined as 7.9 nM; in [7], 15.8 nM.
Usually half-life stands for the time needed for the level to fall by half in the phase considered. Molecule `CC1=C(/C=C/C(C)=C/C=C/C(C)=C/C(=O)O)C(C)(C)CCC1` [TRETINOIN] registered a half-life at 672 h in “clinical” of 45 min.
